The experiment deals with HCV pseudotype (HIV core proteins, HCV E1 and E2 of strain H77). Particulars: for Percent inhibition: 25 μM; for Inhibition of HCV pseudotype infectivity (in words): summary of Tables 7 and 8.
Where [1] appears, read: HCV J4 1b E2 peptides at ~25 μM, Table 8, controls as in Table 7.
Setting [2] is: HCV H77 1a E2 peptides at ~25 μM, Table 7, virus alone 448,123.

Where two headings read alike, the source gives them in different places. Ends that are not written are not given here.

With `CC(C)C[C@H](NC(=O)[C@H](CC(C)C)NC(=O)[C@H](CC(C)C)NC(=O)[C@@H]1CCCN1C(=O)[C@H](CO)NC(=O)[C@H](CC(C)C)NC(=O)[C@H](CCC(=O)O)NC(=O)[C@H](CO)NC(=O)[C@H](CCCNC(=N)N)NC(=O)[C@H](CC(=O)O)NC(=O)[C@H](CCCNC(=N)N)NC(=O)[C@H](CC(=O)O)NC(=O)[C@H](CCC(=O)O)NC(=O)[C@H](CC(C)C)NC(=O)[C@H](CC(N)=O)NC(=O)[C@@H](N)CS)C(=O)N[C@@H](CO)C(=O)N[C@H](C(=O)O)[C@@H](C)O` [compound 113, CNLEDRDRSELSPLLLST], the Percent inhibition is given as −27.3%. Further, the Luciferase units under setting [1] is recorded as 570,553 luciferase units (lumens).

As for `CC[C@H](C)[C@H](NC(=O)[C@H](CCC(N)=O)NC(=O)[C@H](Cc1c[nH]c2ccccc12)NC(=O)[C@H](CCC(=O)O)NC(=O)[C@@H](NC(=O)[C@@H](NC(=O)[C@H](CO)NC(=O)[C@H](CC(C)C)NC(=O)[C@H](CC(C)C)NC(=O)[C@H](CC(C)C)NC(=O)[C@@H]1CCCN1C(=O)[C@H](CO)NC(=O)[C@H](CC(C)C)NC(=O)[C@H](CCC(=O)O)NC(=O)[C@H](CO)NC(=O)[C@@H](N)CCCNC(=N)N)[C@@H](C)O)[C@@H](C)O)C(=O)N[C@@H](CC(C)C)C(=O)N1CCC[C@H]1C(=O)O` [compound 114, RSELSPLLLSTTEWQILP], the Percent inhibition is 39.7%. The Luciferase units under setting [1] is 270,190 luciferase units (lumens).

On to “AFVSFAIKWEYILLLFLL [compound 119, AFVSFAIKWEYILLLFLL]”, for which the Percent inhibition is reported as 84.6%. The Luciferase units under setting [1] was 69,220 luciferase units (lumens).

For the compound “AGVDAETHVTGGSAGRTT [peptide 1, AGVDAETHVTGGSAGRTT]”, the Percent inhibition is reported as 44.1%. In addition, the Luciferase units under setting [2] is on record as 250,376 luciferase units (lumens).

As to “AGVDGETHTTGRVAGHTT [compound 54, AGVDGETHTTGRVAGHTT]”, the Percent inhibition is given as 17.9%. In addition, the Luciferase units under setting [1] is 372,393 luciferase units (lumens).

Consider “AKQNIQLINTNGSWHINS [peptide 5, AKQNIQLINTNGSWHINS]”, for which the Percent inhibition is recorded as 89.3% and the “Inhibition of HCV pseudotype infectivity (in words)” value (“Inhibition … (in words)” for short) is reported as “inhibitory”. Also, the Luciferase units under setting [2] is given as 48,000 luciferase units (lumens).

ARVCACLWMMLLIAQAEA [compound 121]: the Percent inhibition is listed as 24.5%. Moreover, the Luciferase units under setting [1] is listed as 338,200 luciferase units (lumens).

For ARVCSCLWMMLLISQAEA [compound 49], the Percent inhibition is recorded as 31.4%. For the same compound, the Luciferase units under setting [2] is 307,310 luciferase units (lumens).

On to “CDLEDRDRSELSPLLLST [compound 38, CDLEDRDRSELSPLLLST]”, for which the Percent inhibition is 23.0%. Besides, under setting [2], the Luciferase units is reported as 345,110 luciferase units (lumens).

“DTDVFVLNNTRPPLGNWF [compound 21, DTDVFVLNNTRPPLGNWF]”: the Percent inhibition is 45.9%. In addition, under setting [2], the Luciferase units was 242,223 luciferase units (lumens).

“DWFAQGWGPITYTKPNSS [compound 89, DWFAQGWGPITYTKPNSS]”: the Percent inhibition is reported as −0.3%. Besides, under setting [1], the Luciferase units is 449,293 luciferase units (lumens).

For the compound “DYPYRLWHYPCTINYTIF [compound 32, DYPYRLWHYPCTINYTIF]”, the Percent inhibition is 81.0% and the “Inhibition … (in words)” value was “inhibitory”. Besides, under setting [2], the Luciferase units is on record as 85,086 luciferase units (lumens).

Take “DYPYRLWHYPCTLNFSIF [compound 108, DYPYRLWHYPCTLNFSIF]”: the Percent inhibition is given as 90.9% and the “Inhibition … (in words)” value is on record as “inhibitory”. Also, the Luciferase units under setting [1] is recorded as 40,853 luciferase units (lumens).

With FYAHKFNSSGCPERMASC [compound 86], the Percent inhibition is 11.2%. The Luciferase units under setting [1] is reported as 398,110 luciferase units (lumens).

FYQHKFNSSGCPERLASC [compound 9]: the Percent inhibition was −11.8%. Also, the Luciferase units under setting [2] is 501,126 luciferase units (lumens).

On to “GHTTSGFTSLFSSGASQK [compound 81, GHTTSGFTSLFSSGASQK]”, for which the Percent inhibition was −7.3%. Besides, the Luciferase units under setting [1] was 480,623 luciferase units (lumens).

For the compound GNNTLLCPTDCFRKHPEA [compound 27], the Percent inhibition was −28.4%. Moreover, the Luciferase units under setting [2] is recorded as 575,206 luciferase units (lumens).

Turning to GNRILICPTDCFRKHPEA [compound 103], the Percent inhibition stood at 31.8%. The Luciferase units under setting [1] is 305,690 luciferase units (lumens).

Consider GNWFGCTWMNSTGFTKVC [compound 23], for which the Percent inhibition was 17.9%. In addition, the Luciferase units under setting [2] is recorded as 367,916 luciferase units (lumens).

For “GPISYANGSGLDERPYCW [compound 13, GPISYANGSGLDERPYCW]”, the Percent inhibition was determined as 31.1%. Under setting [2], the Luciferase units is 313,323 luciferase units (lumens).

In the case of “GRTTAGLVGLLTPGAKQN [peptide 3, GRTTAGLVGLLTPGAKQN]”, the Percent inhibition is 0.05%. Further, the Luciferase units under setting [2] is 447,906 luciferase units (lumens).

Take GSGLDERPYCWHYPPRPC [compound 14]: the Percent inhibition was 37.6%. In addition, the Luciferase units under setting [2] is 279,626 luciferase units (lumens).

As to “HINSTALNCNESLNTGWL [compound 7, HINSTALNCNESLNTGWL]”, the Percent inhibition came out at 14.9%. In addition, under setting [2], the Luciferase units was 381,340 luciferase units (lumens).

“HPEATYSRCGSGPWITPR [compound 29, HPEATYSRCGSGPWITPR]”: the Percent inhibition is on record as 33.6%. Besides, the Luciferase units under setting [2] was 297,353 luciferase units (lumens).

“HPEATYTKCGSGPWLTPR [compound 105, HPEATYTKCGSGPWLTPR]”: the Percent inhibition was −23.2%. Further, the Luciferase units under setting [1] is given as 552,170 luciferase units (lumens).

As to HRLEAACNWTRGERCDLE [compound 36], the Percent inhibition is given as −19.5%. Besides, the Luciferase units under setting [2] is 535,016 luciferase units (lumens).

On to HRLNAACNWTRGERCNLE [compound 111], for which the Percent inhibition is on record as −39.2%. Besides, the Luciferase units under setting [1] is recorded as 632,613 luciferase units (lumens).

Turning to “HVTGGSAGRTTAGLVGLL [peptide 2, HVTGGSAGRTTAGLVGLL]”, the Percent inhibition is given as 0.2%. Also, the Luciferase units under setting [2] is on record as 447,336 luciferase units (lumens).

“HYPCTINYTIFKVRMYVG [compound 33, HYPCTINYTIFKVRMYVG]”: the Percent inhibition turned out to be 95.0% and the “Inhibition … (in words)” value was “inhibitory”. Moreover, the Luciferase units under setting [2] is recorded as 22,406 luciferase units (lumens).

Regarding “HYPCTLNFSIFKVRMYVG [compound 109, HYPCTLNFSIFKVRMYVG]”, the Percent inhibition is 79.4% and the “Inhibition … (in words)” value is “inhibitory”. Moreover, the Luciferase units under setting [1] was 96,893 luciferase units (lumens).

As for “INTNGSWHINSTALNCNE [peptide 6, INTNGSWHINSTALNCNE]”, the Percent inhibition was −12.3%. Under setting [2], the Luciferase units is listed as 503,446 luciferase units (lumens).

On to ITPRCMVDYPYRLWHYPC [compound 31], for which the Percent inhibition came out at 6.4%. Moreover, the Luciferase units under setting [2] was 419,263 luciferase units (lumens).
